Drawing on BindingDB's records for doi:10.1021/np200036v (National Engineering Research Center For The Emergency …, 2020), this text covers IC50 for 22 compounds.

Assay [1] deals with Receptor-type tyrosine-protein phosphatase beta (Homo sapiens, UniProt P23467). Put plainly: Inhibition of recombinant human PTPbeta using DiFMUP as substrate preincubated for 10 mins followed by substrate addition and measured after 2 hrs.
Assay [2] has as its target T1, Tyrosine-protein phosphatase non-receptor type 1 (Homo sapiens, UniProt P18031).
T1 sequence (P18031 whole entry): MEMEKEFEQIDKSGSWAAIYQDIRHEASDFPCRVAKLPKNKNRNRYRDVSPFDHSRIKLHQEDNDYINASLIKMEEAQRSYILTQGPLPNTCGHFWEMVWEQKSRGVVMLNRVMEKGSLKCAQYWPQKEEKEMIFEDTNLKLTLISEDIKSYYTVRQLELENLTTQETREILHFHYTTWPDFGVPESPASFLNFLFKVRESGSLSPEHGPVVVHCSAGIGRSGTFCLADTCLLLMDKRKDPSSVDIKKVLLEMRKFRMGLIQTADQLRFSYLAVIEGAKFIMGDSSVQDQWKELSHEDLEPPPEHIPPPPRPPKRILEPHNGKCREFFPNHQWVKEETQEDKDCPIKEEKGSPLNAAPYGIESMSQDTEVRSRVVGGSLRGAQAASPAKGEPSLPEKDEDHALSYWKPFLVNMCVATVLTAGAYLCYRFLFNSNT
Briefly: Inhibition of recombinant PTP1B (unknown origin).

Assay [3] addresses T2, Tyrosine-protein phosphatase non-receptor type 11 (Homo sapiens, UniProt Q06124).
T2 sequence (Q06124 whole entry): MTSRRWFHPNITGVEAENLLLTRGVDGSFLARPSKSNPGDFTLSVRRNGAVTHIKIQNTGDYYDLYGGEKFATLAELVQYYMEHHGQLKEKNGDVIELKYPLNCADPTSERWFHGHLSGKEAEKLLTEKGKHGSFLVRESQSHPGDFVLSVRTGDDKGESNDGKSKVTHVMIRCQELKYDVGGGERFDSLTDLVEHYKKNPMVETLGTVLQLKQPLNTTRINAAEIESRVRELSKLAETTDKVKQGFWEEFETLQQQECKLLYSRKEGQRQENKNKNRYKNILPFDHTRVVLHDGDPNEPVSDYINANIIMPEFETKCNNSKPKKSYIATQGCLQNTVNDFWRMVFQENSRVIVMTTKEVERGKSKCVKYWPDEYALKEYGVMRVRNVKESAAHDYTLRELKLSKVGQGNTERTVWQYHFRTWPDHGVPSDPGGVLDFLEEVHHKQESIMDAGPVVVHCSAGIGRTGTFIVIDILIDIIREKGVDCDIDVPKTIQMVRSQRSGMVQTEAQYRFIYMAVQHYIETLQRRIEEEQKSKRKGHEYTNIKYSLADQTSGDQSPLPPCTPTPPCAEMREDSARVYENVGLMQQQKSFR
Briefly: Inhibition of recombinant SHP2 (unknown origin).

Assay [4] concerns the target T3, Tyrosine-protein phosphatase non-receptor type 2 (Homo sapiens, UniProt P17706).
T3 sequence (P17706 whole entry): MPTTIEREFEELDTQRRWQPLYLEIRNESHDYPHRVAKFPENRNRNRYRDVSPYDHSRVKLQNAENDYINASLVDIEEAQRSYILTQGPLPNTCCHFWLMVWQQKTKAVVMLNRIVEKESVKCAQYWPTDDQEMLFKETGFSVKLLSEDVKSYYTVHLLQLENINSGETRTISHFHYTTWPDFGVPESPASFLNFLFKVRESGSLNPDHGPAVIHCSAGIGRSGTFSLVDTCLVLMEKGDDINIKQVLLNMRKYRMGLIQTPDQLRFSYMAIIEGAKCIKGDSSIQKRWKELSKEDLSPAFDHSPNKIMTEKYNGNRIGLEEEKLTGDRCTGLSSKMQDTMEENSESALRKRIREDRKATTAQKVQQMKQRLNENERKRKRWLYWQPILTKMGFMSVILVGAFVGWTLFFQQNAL
Briefly: Inhibition of recombinant TC-PTP (unknown origin).

Assay [5] deals with Receptor-type tyrosine-protein phosphatase F (Homo sapiens, UniProt P10586). Put plainly: Inhibition of recombinant LAR (unknown origin).
Chain of Receptor-type tyrosine-protein phosphatase F (P10586 whole entry): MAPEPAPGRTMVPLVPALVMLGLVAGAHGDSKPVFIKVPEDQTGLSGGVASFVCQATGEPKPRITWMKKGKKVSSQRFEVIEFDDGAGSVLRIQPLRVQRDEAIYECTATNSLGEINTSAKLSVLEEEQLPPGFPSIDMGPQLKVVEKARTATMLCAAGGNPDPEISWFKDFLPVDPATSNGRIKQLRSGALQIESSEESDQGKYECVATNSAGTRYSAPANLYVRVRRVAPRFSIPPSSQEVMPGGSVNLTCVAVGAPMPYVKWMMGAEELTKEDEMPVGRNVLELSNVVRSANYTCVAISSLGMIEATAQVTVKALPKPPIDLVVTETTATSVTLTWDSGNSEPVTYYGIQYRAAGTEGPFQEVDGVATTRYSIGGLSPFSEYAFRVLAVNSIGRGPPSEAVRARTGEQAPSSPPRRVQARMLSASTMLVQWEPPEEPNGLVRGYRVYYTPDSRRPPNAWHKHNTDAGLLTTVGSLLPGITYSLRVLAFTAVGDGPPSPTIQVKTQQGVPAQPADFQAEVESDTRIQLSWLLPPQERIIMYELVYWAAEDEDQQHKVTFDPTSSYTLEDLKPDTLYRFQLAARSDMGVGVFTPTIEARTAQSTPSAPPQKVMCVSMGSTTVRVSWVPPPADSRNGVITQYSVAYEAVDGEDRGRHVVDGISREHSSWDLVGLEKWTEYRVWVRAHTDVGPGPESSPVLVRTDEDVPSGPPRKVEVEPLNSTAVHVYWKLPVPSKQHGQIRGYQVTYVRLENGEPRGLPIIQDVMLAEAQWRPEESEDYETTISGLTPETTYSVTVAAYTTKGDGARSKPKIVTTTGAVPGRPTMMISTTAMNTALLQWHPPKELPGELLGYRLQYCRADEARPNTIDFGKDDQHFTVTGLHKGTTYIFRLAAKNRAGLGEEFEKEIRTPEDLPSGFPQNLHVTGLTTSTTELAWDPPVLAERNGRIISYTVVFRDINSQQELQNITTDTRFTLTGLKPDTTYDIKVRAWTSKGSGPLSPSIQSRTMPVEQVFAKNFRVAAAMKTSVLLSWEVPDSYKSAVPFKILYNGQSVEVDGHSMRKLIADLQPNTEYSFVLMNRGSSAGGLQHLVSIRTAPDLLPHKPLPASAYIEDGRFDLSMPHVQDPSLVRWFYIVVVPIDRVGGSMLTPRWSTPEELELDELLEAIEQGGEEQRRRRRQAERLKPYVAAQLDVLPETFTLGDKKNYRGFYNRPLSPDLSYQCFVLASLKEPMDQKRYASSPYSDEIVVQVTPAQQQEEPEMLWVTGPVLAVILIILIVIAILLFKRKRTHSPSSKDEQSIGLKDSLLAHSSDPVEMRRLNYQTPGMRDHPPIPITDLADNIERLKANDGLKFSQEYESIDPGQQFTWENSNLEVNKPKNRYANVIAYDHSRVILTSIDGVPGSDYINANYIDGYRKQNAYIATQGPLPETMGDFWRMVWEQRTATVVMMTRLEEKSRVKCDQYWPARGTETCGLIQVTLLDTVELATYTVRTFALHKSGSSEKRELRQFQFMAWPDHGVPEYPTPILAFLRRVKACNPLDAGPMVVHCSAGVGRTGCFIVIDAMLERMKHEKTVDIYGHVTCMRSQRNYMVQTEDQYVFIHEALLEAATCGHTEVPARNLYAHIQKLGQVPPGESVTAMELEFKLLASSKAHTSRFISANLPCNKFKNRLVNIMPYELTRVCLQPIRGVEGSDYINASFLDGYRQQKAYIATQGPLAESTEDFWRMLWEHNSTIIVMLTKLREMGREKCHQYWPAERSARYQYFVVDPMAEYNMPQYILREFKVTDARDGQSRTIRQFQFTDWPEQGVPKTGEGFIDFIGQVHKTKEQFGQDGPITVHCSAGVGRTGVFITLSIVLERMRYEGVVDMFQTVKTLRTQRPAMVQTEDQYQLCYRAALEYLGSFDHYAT

Chain of Receptor-type tyrosine-protein phosphatase beta (P23467 whole entry): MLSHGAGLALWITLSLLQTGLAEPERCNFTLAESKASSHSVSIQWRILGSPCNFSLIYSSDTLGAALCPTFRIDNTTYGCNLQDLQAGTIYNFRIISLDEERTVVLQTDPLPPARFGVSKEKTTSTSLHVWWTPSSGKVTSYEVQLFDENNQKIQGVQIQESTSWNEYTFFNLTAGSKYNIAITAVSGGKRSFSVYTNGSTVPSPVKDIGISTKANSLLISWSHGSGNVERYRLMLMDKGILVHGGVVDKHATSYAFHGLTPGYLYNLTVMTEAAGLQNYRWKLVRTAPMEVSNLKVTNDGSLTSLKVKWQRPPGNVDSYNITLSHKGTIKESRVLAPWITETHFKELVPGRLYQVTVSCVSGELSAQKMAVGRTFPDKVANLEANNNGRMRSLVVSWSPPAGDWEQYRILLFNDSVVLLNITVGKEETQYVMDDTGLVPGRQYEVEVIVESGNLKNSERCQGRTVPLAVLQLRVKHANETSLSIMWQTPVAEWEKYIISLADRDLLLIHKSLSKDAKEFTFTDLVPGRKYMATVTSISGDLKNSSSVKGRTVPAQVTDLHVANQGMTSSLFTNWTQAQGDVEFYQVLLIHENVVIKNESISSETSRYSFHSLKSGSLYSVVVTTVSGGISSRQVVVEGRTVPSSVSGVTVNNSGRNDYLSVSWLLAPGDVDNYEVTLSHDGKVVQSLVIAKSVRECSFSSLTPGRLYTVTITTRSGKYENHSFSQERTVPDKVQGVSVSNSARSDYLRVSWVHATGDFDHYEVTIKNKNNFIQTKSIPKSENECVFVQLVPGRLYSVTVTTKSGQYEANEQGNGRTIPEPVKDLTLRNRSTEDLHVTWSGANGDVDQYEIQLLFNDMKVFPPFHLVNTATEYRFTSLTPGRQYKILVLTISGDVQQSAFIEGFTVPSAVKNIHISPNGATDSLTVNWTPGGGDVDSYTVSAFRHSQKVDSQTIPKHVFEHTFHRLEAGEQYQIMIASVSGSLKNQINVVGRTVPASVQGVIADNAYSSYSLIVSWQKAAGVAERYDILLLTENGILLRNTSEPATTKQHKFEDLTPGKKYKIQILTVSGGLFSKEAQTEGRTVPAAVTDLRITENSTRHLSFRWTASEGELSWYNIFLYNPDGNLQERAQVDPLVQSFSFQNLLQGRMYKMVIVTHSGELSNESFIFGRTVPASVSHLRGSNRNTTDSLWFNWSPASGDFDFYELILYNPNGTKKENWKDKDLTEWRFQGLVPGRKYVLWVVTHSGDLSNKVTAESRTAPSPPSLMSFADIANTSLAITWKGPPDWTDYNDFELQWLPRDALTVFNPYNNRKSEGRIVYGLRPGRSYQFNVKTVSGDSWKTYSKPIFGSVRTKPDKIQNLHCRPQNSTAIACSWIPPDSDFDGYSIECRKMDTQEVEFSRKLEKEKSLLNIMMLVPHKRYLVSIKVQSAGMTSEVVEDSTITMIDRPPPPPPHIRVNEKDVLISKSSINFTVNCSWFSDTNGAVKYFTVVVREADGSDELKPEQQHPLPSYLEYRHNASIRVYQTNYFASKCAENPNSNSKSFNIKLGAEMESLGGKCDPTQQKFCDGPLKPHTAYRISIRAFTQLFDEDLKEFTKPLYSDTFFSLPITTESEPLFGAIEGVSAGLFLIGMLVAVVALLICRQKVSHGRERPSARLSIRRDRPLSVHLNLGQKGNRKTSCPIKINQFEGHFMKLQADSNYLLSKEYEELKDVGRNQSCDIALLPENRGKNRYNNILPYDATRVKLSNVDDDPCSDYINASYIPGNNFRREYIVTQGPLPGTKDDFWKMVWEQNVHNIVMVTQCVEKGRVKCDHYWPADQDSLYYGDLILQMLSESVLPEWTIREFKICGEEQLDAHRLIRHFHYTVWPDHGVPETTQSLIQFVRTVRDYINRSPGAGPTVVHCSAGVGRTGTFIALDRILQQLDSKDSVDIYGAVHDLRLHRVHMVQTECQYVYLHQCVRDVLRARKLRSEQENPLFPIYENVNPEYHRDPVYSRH

The IC50 is the concentration at which inhibition is half-maximal. Take `O=C(COc1ccc(Cl)cc1Cl)N(Cc1ccc(NS(=O)(=O)O)cc1)c1ccccc1`: the IC50 in assay [1] turned out to be 1.68 µM.

With `O=C(Cc1cccc(F)c1)N(Cc1ccc(NS(=O)(=O)O)cc1)c1ccccc1`, the IC50 in assay [1] amounted to 1.72 µM.

As for `COC(=O)N[C@@H](Cc1ccccc1)C(=O)N(Cc1ccc(NS(=O)(=O)O)cc1)c1ccccc1`, the IC50 in assay [1] was determined as 3.42 µM.

Take `CC(C)(C)OC(=O)N1CCC(C(=O)N(Cc2ccc(NS(=O)(=O)O)cc2)c2ccccc2)CC1`: the 50% inhibitory concentration (IC50) was found to be 1.45 µM in assay [1]; 123 µM in assay [2]; 24.7 µM in assay [3]; 102 µM in assay [4]; 112 µM in assay [5].

As for `O=C(Cc1ccc(Br)c(F)c1)N(Cc1ccc(NS(=O)(=O)O)cc1)c1ccccc1`, in assay [1], the IC50 is 1.78 µM.

In the case of `CC(C)(C)OC(=O)N1CCC(C(=O)N(Cc2ccc(NS(=O)(=O)O)cc2)c2nc(-c3ccccc3)cs2)CC1`, the IC50 in assay [1] came to 6.4 µM.

For `COC(=O)N[C@@H](Cc1ccccc1)C(=O)N(Cc1ccc(NS(=O)(=O)O)cc1)c1nc(-c2ccccc2)cs1`, the half-maximal inhibitory concentration (IC50) in assay [1] came out at 3.46 µM.

In the case of `O=C(Cc1cccc(F)c1)N(Cc1ccc(NS(=O)(=O)O)cc1)c1nc(-c2ccccc2)cs1`, the IC50 in assay [1] amounted to 4.1 µM.

For the compound `COC(=O)N[C@@H](Cc1ccccc1)C(=O)N(Cc1ccc(NS(=O)(=O)O)cc1)c1nc(-c2cccs2)cs1`, the IC50 in assay [1] stood at 6.61 µM.

With `O=C(c1cccnc1Cl)N(Cc1ccc(NS(=O)(=O)O)cc1)c1nc(-c2ccccc2)cs1`, the concentration for half-maximal inhibition (IC50) in assay [1] came to 2.98 µM; in assay [2], 22.2 µM; in assay [3], 19.6 µM; in assay [4] it was 32.8 µM; in assay [5], 42.3 µM.

Consider `O=C(c1ccccc1Cl)N(Cc1ccc(NS(=O)(=O)O)cc1)c1nc(-c2ccccc2)cs1`, for which, in assay [1], the IC50 is 4.67 µM.

`COc1cccc(S(=O)(=O)N(Cc2ccc(NS(=O)(=O)O)cc2)c2nc(-c3ccccc3)cs2)c1`: the concentration for half-maximal inhibition (IC50) in assay [1] came out at 0.968 µM; in assay [2] it was 20.5 µM; in assay [3], 6.41 µM; in assay [4], 31.3 µM; in assay [5] it was 34.8 µM.

On to `COc1ccc(S(=O)(=O)N(Cc2ccc(NS(=O)(=O)O)cc2)c2nc(-c3ccccc3)cs2)cc1`, for which the IC50 in assay [1] was determined as 2.07 µM.

Regarding `O=S(=O)(O)Nc1ccc(CN(c2nc(-c3ccccc3)cs2)S(=O)(=O)c2cccc(F)c2)cc1`, the IC50 in assay [1] came out at 1.24 µM.

Turning to `O=S(=O)(O)Nc1ccc(CN(c2nc(-c3ccccc3)cs2)S(=O)(=O)c2cccc(Cl)c2)cc1`, the IC50 in assay [1] came out at 1.32 µM.

Take `O=C(c1ccccc1Cl)N(Cc1ccc(NS(=O)(=O)O)cc1)c1nc(-c2cccs2)cs1`: in assay [1], the IC50 was 5.94 µM.

As to `COc1cccc(S(=O)(=O)N(Cc2ccc(NS(=O)(=O)O)cc2)c2nc(-c3cccs3)cs2)c1`, the concentration for half-maximal inhibition (IC50) in assay [1] stood at 1.41 µM.

In the case of `COc1ccc(S(=O)(=O)N(Cc2ccc(NS(=O)(=O)O)cc2)c2nc(-c3cccs3)cs2)cc1`, in assay [1], the IC50 is 1.81 µM.

As for `O=S(=O)(O)Nc1ccc(CN(c2nc(-c3cccs3)cs2)S(=O)(=O)c2cccc(F)c2)cc1`, in assay [1], the IC50 was 1.07 µM.

Take `O=S(=O)(O)Nc1ccc(CN(c2nc(-c3cccs3)cs2)S(=O)(=O)c2cccc(Cl)c2)cc1`: the IC50 in assay [1] was 1.75 µM.

Take `O=S(=O)(O)Nc1ccc(CNc2nc(-c3cccs3)cs2)cc1`: the IC50 in assay [1] was 0.995 µM; in assay [2], above 250 µM; in assay [3], 25.6 µM; in assay [4], above 250 µM; in assay [5] it was 130 µM.

In the case of `O=[N+]([O-])c1ccc(CNc2ccccc2)cc1`, the IC50 was 15.7 µM in assay [2], 55.3 µM in assay [3], 20.1 µM in assay [4] and 76.4 µM in assay [5].
